In test [1] the test system is RAW 264.7 murine monocyte/macrophage line. The test is described as follows: Assay for Anti-inflammatory Activity by Inhibition of Macrophage Chemiluminescence (respiratory burst, PMA-stimulated mouse macrophages). In kind it is cell-based. An excerpt: The RAW 264.7 cell line (available from the ATCC under accession no. TIB 71) is a murine monocyte/macrophage line the cells of which show many of the differentiative functions of a macrophage. Like macrophages, the cells are capable of phagocytosis and undergo an oxidative burst (increased oxygen consumption) and production of oxygen radicals (e.g., superoxide) in response to appropriate signals. Agents that inhibit the activation of these cells in vitro, so as to inhibit the respiratory burst and corresponding production of oxygen radicals associated with the activation, are therefore inhibitors of macrophage activation and critical steps in inflammatory processes.
The respiratory burst and corresponding production of oxygen radicals that accompany macrophage activation can be measured in a variety of ways, including chemiluminescence based on the reaction of the oxygen radicals with luminol added to the culture medium (see M. A. Trush et at., 1978, "The Generation of Chemiluminescence by Phagocytic Cells." Methods in Enzymology 57: 462-494). Indeed, chemiluminescence generated from luminol in the culture medium of macrophage cell lines is recognized in the art as a marker of macrophage activation.
1. Cell line: Raw 264.7 (ATCC TIB-71, attachment dependent);
2. Culture medium: DMEM with 10% FBS;
(§1) 3. Standard protocol for culturing cell lines: in T-75 or T-150 flasks; 37° C.; 95% air, 5% CO2; 100% humidity;
a. Cell line is passaged when approximately 80% confluent; with trypsin (1 mg/ml) and EDTA ([…] in ca-MG free Hank's balanced salt solution); at a 1:4 to 1:5 split;
b. All procedures are performed aseptically in a class II biological safety cabinet using standard BL-2 containment procedures. In order to prevent genetic drift in stock cell lines, fresh cultures are prepared at approximately monthly intervals with cells thawed from liquid nitrogen storage.
a. After cell passage, count cells with a hemacytometer;
b. Adjust cell concentration to approximately 1,000,000 cells per mL;
c. Suspend cells in DMEM lacking phenol red and without FBS;
d. Pipette 1 mL of cell suspension into a standard luminometer cuvet (12×75), commercially obtainable from Analytical Luminescence Laboratories, San Diego, Calif., USA;
e. Add luminol to final concentration of 0.2 μM;
f. Add test compound dissolved in phosphate buffered saline (PBS), or in DMSO for the comparative compound, vitamin D3, for final concentration levels ranging from 0 to 30 μM;
g. Add 100 nanograms of phorbol myristate acetate (PMA); and
h. Wait 1 minute and read photo counts (i.e., luminescence) on a Monolight 2010 luminometer available from Analytical Luminescence Laboratories, San Diego.
Background--no test compound present; no PMA present;
Control--no test compound present;
Calculate: [formula] where L is luminescence. 6.

For test [2], the system named is PAM-212 Mouse Keratinocytes. The test is described as follows: in vitro PAM-212 Mouse Keratinocytes inhibition assay (anti-psoriasis). In kind it is cell-based. To be noted: at concentrations above 30 μM, 48 hours, FIG. 3. From the text: FIG. 3 is a graphical representation of results from an in vitro PAM-212 Mouse Keratinocytes inhibition assay of a compound of the invention, designated CPR 2005, in comparison with vitamin D3.
Psoriasis is a chronic inflammatory dermatosis characterized, in part, by hyper-proliferation of keratinocytes and release of pro-inflammatory cytokines. Compounds that reduce hyperproliferation of keratinocytes in vitro are likely to have utility in the control of psoriasis.
1. Cell line: PAM-212 murine keratinocyte cell line isolated and cultivated from newborn BALB/c mice (see S. H. Yuspa et al., Cancer Research, Vol. 40, pp. 4694-4703, December, 1980) that appears to retain many characteristics of normal keratinocytes.
2. Culture medium: 1:1 DMEM and Ham's F-12 with 10% FBS.
3. Culture conditions are the same as those described in part 3 of the assay protocol for anti-tumor activity.
4. Methodology is the same as that described in part 4 of the assay protocol for anti-tumor activity, except that, with reference to part 4(b) of the assay protocol for anti-tumor activity, cell concentration in this case is adjusted to 1,000 cells per 100 μL (rather than 5,000 cells per 100 μL).
5. End point determination and analysis are as described in part 5 of the assay protocol for anti-tumor activity.

In test [3] the test system is PMA-Induced Inflammation in Ears of CD-1 Mice. Briefly: PMA-induced inflammation in mouse ears. Type of test: in vivo, mouse (CD-1). To be noted: 6 hours. How it is done: A common in vivo model for the evaluation of anti-inflammatory agents is PMA-induced inflammation in mouse ears. This method is described in "Pharmacological Methods in the Control of Inflammation", Joseph Y. Chang and Alan J. Lewis (eds), Alan R. Liss, Inc., N.Y., pp 221-223. In this assay, edema, which is a characteristic of inflammation, is quantified by determining ear thickness or ear weight approximately 6 hours after applying PMA to the ear.
1. Mice: Male CD-1, 21-24 g (Product Number 3002) obtainable from Harlan Sprague Dawley, Indianapolis, Ind., USA;
a. Prepare 0.01% (w/v) PMA in a mixture of equal volumes of acetone and ethanol;
b. Prepare 0.01% (w/v) PMA and 5% (w/v) test compound in a mixture of equal volumes of acetone and ethanol;
c. Divide 9 mice into 3 groups of 3 mice each;
d. Leave one group of mice untreated;
e. Treat the second group of mice by applying 20 μL of PMA solution to both ears using a micropipetter;
f. Treat the third group of mice by applying 20 μL of PMA solution to the right ear and 20 μL of PMA/test compound solution to the left ear;
g. Wait 6 hours and euthanize the mice in a CO2 chamber;
h. Cut the ears and punch out circles of 6-mm diameter; and
I. Measure the weight of three appropriate ear punches in the same group together.

Test [4] has as its system MDA-MB-231 Human Breast Cancer Cell. Briefly: in vitro MDA-MB-231 Human Breast Cancer Cell inhibition assay (sulforhodamine B). Type of test: cell-based. Particulars: at 100 μM; 48 hours; FIG. 1.
Text: FIG. 1 is a graphical representation of results from an in vitro MDA-MB-231 Human Breast Cancer Cell inhibition assay of a compound of the invention, designated CPR 2005, in comparison with vitamin D3.
(§2) 1. Human tumor cell lines, obtainable from the American Type Culture Collection (ATCC):
a. MDA-MB-231 (ATCC HTB-26): an estrogen receptor negative human breast carcinoma cell line (attachment dependent); and
a. For cell line 1-a: Dulbecco's Modified Eagle's Medium (DMEM) plus 10% Fetal Bovine Serum (FBS); and
as §1
a. […]
(§3) h. Read absorbance at 562 nm using a standard 96-well microtiler plate reader. Absorbance readings are linear with dye concentrations below 1.8 absorbance units. To reduce absorbance, decrease wavelength at which measurements are taken;
(§4) single point reading: the higher the absorbance, the higher the […]; […]
(§5) initial control cell number (ICCN)--no test compound present in culture medium, end point was determined at the time of treatment;
(§6) final control cell number (FCCN)--no test compound present in culture medium, end point was determined at […] after treatment;
(§7) final cell number (FCN)--test compound present in culture medium, end point was determined at 48 hours after treatment; […]
(§8) FCN=A(test compound, 48 hours)-A(Background) [formula] where A is absorbance. […]

Test [5] concerns HT-29 Human Colon Cancer Cells. The test is described as follows: in vitro HT-29 Human Colon Cancer Cells inhibition assay (sulforhodamine B). Particulars: at concentrations above 30 μM; 48 hours; FIG. 2. Type of test: cell-based.
Text: FIG. 2 is a graphical representation of results from an in vitro HT-29 Human Colon Cancer Cells inhibition assay of a compound of the invention, designated CPR 2005, in comparison with Vitamin D3.
as §2
b. HT-29 (ATCC HTB-38): a human colon caminoma cell line (attachment dependent).
b. For cell line 1-b: 1:1 DMEM and Ham's F-12 (DMEM/F12) plus 10% FBS.
as §1
a. […]
as §3, §4, §5, §6, §7, §8

The mark [6] stands for this setting: Mus musculus, RAW264.7, read-out: % Inhibition of Respiratory Burst.

Read-outs that look alike come from different tables or passages of the source.

Usually inhibition stands for the drop in the measured response relative to a control, in per cent.

Turning to `C=C1CC[C@H](OP(=O)([O-])OCC[N+](C)(C)C)C/C1=C/C=C1\CCC[C@]2(C)[C@@H]([C@H](C)CCCC(C)C)CC[C@@H]12` [CPR 2005, (5Z,7E)-(3S)-9,10-Secocholesta-5,7,10(19)-trien-3-phosphocholine], the inhibition at 1 µM in test [1] (RAW264.7, Concentration 1 μM, PMA-Stimulated Mouse Macrophages, read-out: % Inhibition of Respiratory Burst) was 45%. Besides, in test [1] (RAW264.7, Concentration 3 μM, PMA-Stimulated Mouse Macrophages, read-out: % Inhibition of Respiratory Burst), the inhibition at 3 µM stood at 90%. Besides, the inhibition at 10 µM in test [1] (RAW264.7, Concentration 10 μM, PMA-Stimulated Mouse Macrophages, read-out: % Inhibition of Respiratory Burst) came out at 98%. In addition, in test [1] (RAW264.7, Concentration 30 μM, PMA-Stimulated Mouse Macrophages, read-out: % Inhibition of Respiratory Burst), the inhibition at 30 µM amounted to 99%. In addition, in test [1] (at concentrations above 1 μM, PMA-stimulated), the inhibition of luminescence result is “marked inhibition”. Besides, the “inhibition of keratinocyte proliferation” value in test [2] is on record as “marked inhibition”. In addition, the “Average Weight of Punched Ear, left ear” value in test [3] (CPR 2005 + PMA (left ear), PMA (right ear, 30 mg), PMA both ears: left 34, right 28, untreated 12, 20 μL of 0.01% PMA / 5% (w/v) test compound) was determined as 15 mg. Also, the “inhibition of PMA-induced inflammation in mouse ear” value in test [3] (topical, 5% (w/v) test compound) was “marked inhibition”. In addition, the “inhibition of MDA-MB-231 cell growth” value in test [4] is “marked inhibition”. For the same compound, the “inhibition of HT-29 cell growth” value in test [5] is reported as “marked inhibition”.

`C=C1CC[C@H](O)C/C1=C/C=C1\CCC[C@]2(C)[C@@H]([C@H](C)CCCC(C)C)CC[C@@H]12` [Vitamin D3, 9, 10-secocholesta-5,7,10(19)-trien-3-ol, reference compound]: in test [1] (setting [6]), the inhibition at 1 µM came out at 10%, the inhibition at 3 µM was found to be 9%, the inhibition at 10 µM worked out at 2% and the inhibition at 30 µM is 12%.

The values are drawn from patent US5691328A, “Phosphoethanolamine conjugates of vitamin D compounds” (Clarion Pharmaceuticals Inc., priority 1996, dated 1997).
